Measurements published in patent US6420455B1, “Antimicrobial composition containing photosensitizers articles, and methods of use” (3M Innovative Properties Company, priority 1999, dated 2002).

Columns and labels:
Experiment in all cases: Zone of inhibition of dye-dipped filter disks on agar lawn
Staph. Aureus = type: cell-based, Staphylococcus aureus; conditions: for Zone of Inhibition in Dark: 10 mg/ml dye in water on 6-mm disk; for Zone of Inhibition in Room Light, 15 Minutes / Zone of Inhibition in Room Light Overnight / Zone of Inhibition in Room Light (after 30 min.): 10 mg/ml dye on 6-mm disk
Method: (§1) The procedure used for testing for antibacterial and antifungal activity is as follows.
Bacteria or fungi stock was plated onto Trypticase Soy Broth (TSB) agar (Becton Dickinson, Cockeysville, Md.) and incubated at 37° C. overnight, at which time several colonies were transferred to phosphate buffered saline (PBS) to give a solution with final concentration of 10^6 bacteria/ml or fungi/ml, as determined by comparison of turbidity with McFarland standards. Subsequently, a lawn of the bacterium or fungus was prepared by triple swabbing a Trypticase Soy broth agar plate (prepared using TSB and agar according to label instructions). Then, 6-mm diameter paper filter disks were dipped into one of the dyed solutions, blotted to remove the excess solution, and placed on the agar plates. […]
(§2) The plates were removed from the incubator and inspected for clear areas surrounding treated 6-mm filter disks that are indicative of prevention of growth of bacteria. The diameter of each clear area was measured and recorded and compared with controls.

E. faecium = type: cell-based, Enterococcus faecium; conditions: for Zone of Inhibition in Dark: 10 mg/ml dye on 6-mm disk
Method: as §1
(§3) Bacteria or fungi stock was plated onto Trypticase Soy Broth (TSB) agar (Becton Dickinson, Cockeysville, Md.) and incubated at 37° C. overnight, at which time several colonies were transferred to phosphate buffered saline (PBS) to give a solution with final concentration of 10^6 bacteria/ml or fungi/ml, as determined by comparison of turbidity with McFarland standards. Subsequently, a lawn of the bacterium or fungus was prepared by triple swabbing a Trypticase Soy broth agar plate (prepared using TSB and agar according to label instructions). Then, 6-mm diameter paper filter disks were dipped into one of the dyed solutions, blotted to remove the excess solution, and placed on the agar plates. Each plate was then either kept in the dark (control) or irradiated for 15 minutes in room light or for overnight in room light before incubation at 37° C. for 24 hours.
as §2

C. albicans = type: cell-based, Candida albicans; conditions: for Zone of Inhibition in Dark: 10 mg/ml dye on 6-mm disk
Method: as §1, §3, §2

P. aeruginosa = type: cell-based, Pseudomonas aeruginosa; conditions: for Zone of Inhibition in Dark: 10 mg/ml dye on 6-mm disk
Method: as §1, §3, §2

Salmonella spp. = type: cell-based; conditions: for Zone of Inhibition in Dark: 10 mg/ml dye on 6-mm disk
Method: as §1, §3, §2

E. coli = type: cell-based, Escherichia coli; conditions: for Zone of Inhibition in Dark: 10 mg/ml dye on 6-mm disk
Method: as §1, §3, §2

SMILES | Zone of Inhibition in Dark (Staph. Aureus) [mm] | Zone of Inhibition in Room Light, 15 Minutes (Staph. Aureus) [mm] | Zone of Inhibition in Room Light Overnight (Staph. Aureus) [mm] | Zone of Inhibition in Dark (E. faecium) [mm] | Zone of Inhibition in Room Light, 15 Minutes (E. faecium) [mm] | Zone of Inhibition in Room Light Overnight (E. faecium) [mm] | Zone of Inhibition in Dark (C. albicans) [mm] | Zone of Inhibition in Room Light, 15 Minutes (C. albicans) [mm] | Zone of Inhibition in Room Light Overnight (C. albicans) [mm] | Zone of Inhibition in Dark (P. aeruginosa) [mm] | Zone of Inhibition in Room Light, 15 Minutes (P. aeruginosa) [mm] | Zone of Inhibition in Room Light Overnight (P. aeruginosa) [mm] | Zone of Inhibition in Dark (Salmonella spp.) [mm] | Zone of Inhibition in Room Light, 15 Minutes (Salmonella spp.) [mm] | Zone of Inhibition in Room Light Overnight (Salmonella spp.) [mm] | Zone of Inhibition in Dark (E. coli) [mm] | Zone of Inhibition in Room Light, 15 Minutes (E. coli) [mm] | Zone of Inhibition in Room Light Overnight (E. coli) [mm] | Zone of Inhibition in Room Light (after 30 min.) (Staph. Aureus) [mm]
CN(C)c1ccc2nc3ccc(=[N+](C)C)cc-3sc2c1 [Methylene Blue] | 18 | 20 | 28 | 16 | 16 | 19 | 12 | 12 | 18 | 0 | 0 | 0 | 0 | 0 | 0 | 8 | 0 | 0 | –
CN(C)c1ccc(C(=C2C=CC(=[N+](C)C)C=C2)c2ccc(N(C)C)cc2)cc1 [Crystal Violet] | 30 | – | – | – | – | – | – | – | – | – | – | – | – | – | – | – | – | – | 30
Cc1cc2nc3ccc(N(C)C)cc3[s+]c2cc1N.[Cl-] [Toluidine Blue O] | 20 | – | – | – | – | – | – | – | – | – | – | – | – | – | – | – | – | – | 19
O=C([O-])c1c(Cl)c(Cl)c(Cl)c(Cl)c1-c1c2cc(I)c(=O)c(I)c-2oc2c(I)c([O-])c(I)cc12.[Na+].[Na+] [Rose Bengal disodium salt] | 23 | 21 | 36 | 19 | 19 | 34 | 0 | 0 | 13 | 0 | 0 | 13 | 7 | 8 | 19 | 0 | 0 | 11 | –
